From PMC8371902, “Phase 1 study of M2698, a p70S6K/AKT dual inhibitor, in patients with advanced cancer” (Journal of Hematology & Oncology, 2021)

Legend:
[1] = tested on: advanced metastatic cancer; assay: Antitumor activity: tumor response (RECIST 1.1) and progression-free survival; assay type: in vivo, human
Experimental: Tumor response was assessed using RECIST 1.1. As for drugs with cytostatic antitumor activity, disease control rate was defined as the sum of stable disease (SD) and objective response rates; SD was considered clinically beneficial. Progression-free survival (PFS) was measured from treatment initiation until disease progression or death and was estimated using the Kaplan–Meier method.

[2] = Monotherapy population PK model (two-compartment); settings: in vivo
Description: A monotherapy population PK model was developed, consisting of a two-compartment model with four absorption transit compartments and first-order elimination (Additional file 1: Table S5).

[3] = PAM+ patients without confounding markers, M2698 monotherapy 200 mg, N=3
[4] = PAM+ patients without confounding markers, M2698 monotherapy 240 mg, N=16
[5] = PAM+ patients without confounding markers, M2698 monotherapy 320 mg, N=11
[6] = PAM+ patients without confounding markers, M2698 monotherapy 380 mg, N=4
[7] = PAM+ patients without confounding markers, M2698 monotherapy, Total of all dose levels, N=47
[8] = PAM+ patients, M2698 monotherapy 15 mg, N=3
[9] = PAM+ patients, M2698 monotherapy 30 mg, N=2
[10] = PAM+ patients, M2698 monotherapy 60 mg, N=4
[11] = PAM+ patients, M2698 monotherapy 75 mg, N=2
[12] = PAM+ patients, M2698 monotherapy 110 mg, N=3
[13] = PAM+ patients, M2698 monotherapy 160 mg, N=6
[14] = PAM+ patients, M2698 monotherapy 200 mg, N=3
[15] = PAM+ patients, M2698 monotherapy 240 mg, N=16
[16] = PAM+ patients, M2698 monotherapy 320 mg, N=11
[17] = PAM+ patients, M2698 monotherapy 380 mg, N=4
[18] = PAM+ patients, M2698 monotherapy, Total of all dose levels, N=54
[19] = monotherapy, PAM+ with confounding alterations, 1/7

NC(=O)c1cccc2c(N[C@H](CN3CCC3)c3ccc(Cl)c(C(F)(F)F)c3)ncnc12 [M2698]
Response, SD at wk 6 ([1]; PAM+ patients without confounding markers, M2698 monotherapy 160 mg, N=4): 2 (50.0) n (%) | Median PFS [1, 3]: 4.1 months | Response, NE [1, 3]: 0 (0.0) n (%) | Response, PD [1, 3]: 1 (33.3) n (%) | Response, SD at wk 6 [1, 3]: 2 (66.7) n (%) | Median PFS [1, 4]: 1.9 months | Response, NE [1, 4]: 3 (18.8) n (%) | Response, PD [1, 4]: 8 (50.0) n (%) | Response, SD at wk 6 [1, 4]: 5 (31.3) n (%) | Median PFS [1, 5]: 2.8 months | Response, NE [1, 5]: 1 (9.1) n (%) | Response, PD [1, 5]: 5 (45.5) n (%) | Response, SD at wk 6 [1, 5]: 5 (45.5) n (%) | Median PFS [1, 6]: 6.2 months | Response, NE [1, 6]: 2 (50.0) n (%) | Response, PD [1, 6]: 0 (0.0) n (%) | Response, SD at wk 6 [1, 6]: 2 (50.0) n (%) | Median PFS [1, 7]: 2.8 months | Response, NE [1, 7]: 7 (14.9) n (%) | Response, PD [1, 7]: 19 (40.4) n (%) | Response, SD at wk 6 [1, 7]: 21 (44.7) n (%) | Clinical benefit rate ([1]; PAM+ patients, monotherapy): 40.7% | Median PFS [1, 8]: 4.1 months | Response, NE [1, 8]: 0 (0.0) n (%) | Response, PD [1, 8]: 1 (33.3) n (%) | Response, SD at wk 6 [1, 8]: 2 (66.7) n (%) | Median PFS [1, 9]: 10.3 months | Response, NE [1, 9]: 0 (0.0) n (%) | Response, PD [1, 9]: 0 (0.0) n (%) | Response, SD at wk 6 [1, 9]: 2 (100) n (%) | Median PFS [1, 10]: 1.4 months | Response, NE [1, 10]: 1 (25.0) n (%) | Response, PD [1, 10]: 3 (75.0) n (%) | Response, SD at wk 6 [1, 10]: 0 (0.0) n (%) | Median PFS [1, 11]: 2.1 months | Response, NE [1, 11]: 0 (0.0) n (%) | Response, PD [1, 11]: 1 (50.0) n (%) | Response, SD at wk 6 [1, 11]: 1 (50.0) n (%) | Median PFS [1, 12]: 8.2 months | Response, NE [1, 12]: 1 (33.3) 1 (33.3) 1 (33.3) n (%) | Response, PD [1, 12]: 1 (33.3) 1 (33.3) 1 (33.3) n (%) | Response, SD at wk 6 [1, 12]: 1 (33.3) 1 (33.3) 1 (33.3) n (%) | Median PFS [1, 13]: 1.6 months | Response, NE [1, 13]: 0 (0.0) n (%) | Response, PD [1, 13]: 4 (66.7) n (%) | Response, SD at wk 6 [1, 13]: 2 (33.3) n (%) | Median PFS [1, 14]: 4.1 months | Response, NE [1, 14]: 0 (0.0) n (%) | Response, PD [1, 14]: 1 (33.3) n (%) | Response, SD at wk 6 [1, 14]: 2 (66.7) n (%) | Median PFS [1, 15]: 1.9 months | Response, NE [1, 15]: 3 (18.8) n (%) | Response, PD [1, 15]: 8 (50.0) n (%) | Response, SD at wk 6 [1, 15]: 5 (31.3) n (%) | Median PFS [1, 16]: 2.8 months | Response, NE [1, 16]: 1 (9.1) n (%) | Response, PD [1, 16]: 5 (45.5) n (%) | Response, SD at wk 6 [1, 16]: 5 (45.5) n (%) | Median PFS [1, 17]: 6.2 months | Response, NE [1, 17]: 2 (50.0) n (%) | Response, PD [1, 17]: 0 (0.0) n (%) | Response, SD at wk 6 [1, 17]: 2 (50.0) n (%) | Median PFS [1, 18]: 2.4 months | Response, NE [1, 18]: 8 (14.8) n (%) | Response, PD [1, 18]: 24 (44.4) n (%) | Response, SD at wk 6 [1, 18]: 22 (40.7) n (%) | Overall clinical benefit rate at 12 weeks ([1]; in vivo): 27.4% | Patients with stable disease at 12 weeks ([1]; monotherapy cohort): 27.4% | Patients with stable disease ([1]; monotherapy cohort overall): 40.3% | Objective response ([1]; monotherapy cohort, RECIST 1.1): no objective responses were noted | Median PFS ([1]; monotherapy overall): 2.3 months | Median PFS ([1]; monotherapy, PAM+ patients): 2.4 months | Stable disease at 6 weeks [1, 19]: 14.3% | Stable disease at 12 weeks [1, 19]: 14.3% | Stable disease at 12 weeks ([1]; monotherapy, PAM+ without confounding alterations, 14/47): 29.8% | Stable disease at 6 weeks ([1]; monotherapy, PAM+ without confounding alterations, 21/47): 44.7% | PFS of the five patients with PFS ≥ 6 months ([1]; monotherapy, all PAM+ without confounding alterations): 7.1–16.4 months | Median PFS, PAM+ patients with confounding alterations (KRAS, EGFR, AKT2) ([1]; monotherapy, n = 7): 1.4 months | Median PFS, PAM+ patients without confounding alterations ([1]; monotherapy, n = 47): 2.8 months | ALB on Vc, population PK estimate [2]: 0.0247 | BSA on Vc, population PK estimate [2]: 1.17 | CL (clearance), population PK estimate [2]: 7.06 L/h | KA (absorption rate constant), population PK estimate [2]: 2.02 h⁻¹ | Q (flow rate), population PK estimate [2]: 18.0 L/h | Vc (volume of distribution of the central compartment), population PK estimate [2]: 292 L | Vp (volume of distribution of the peripheral compartment), population PK estimate [2]: 53.0 L
